# According to patent publication US12577255B2, “MDM2-based modulators of proteolysis and associated methods of use” (Arvinas Operations, Inc., priority 2015, dated 2026):
# Biological target: T1, androgen receptor (AR) (Homo sapiens, UniProt P10275)
# T1 construct: detects endogenous levels of total androgen receptor protein; host or cells: VCaP
# T1 sequence (P10275 1-920): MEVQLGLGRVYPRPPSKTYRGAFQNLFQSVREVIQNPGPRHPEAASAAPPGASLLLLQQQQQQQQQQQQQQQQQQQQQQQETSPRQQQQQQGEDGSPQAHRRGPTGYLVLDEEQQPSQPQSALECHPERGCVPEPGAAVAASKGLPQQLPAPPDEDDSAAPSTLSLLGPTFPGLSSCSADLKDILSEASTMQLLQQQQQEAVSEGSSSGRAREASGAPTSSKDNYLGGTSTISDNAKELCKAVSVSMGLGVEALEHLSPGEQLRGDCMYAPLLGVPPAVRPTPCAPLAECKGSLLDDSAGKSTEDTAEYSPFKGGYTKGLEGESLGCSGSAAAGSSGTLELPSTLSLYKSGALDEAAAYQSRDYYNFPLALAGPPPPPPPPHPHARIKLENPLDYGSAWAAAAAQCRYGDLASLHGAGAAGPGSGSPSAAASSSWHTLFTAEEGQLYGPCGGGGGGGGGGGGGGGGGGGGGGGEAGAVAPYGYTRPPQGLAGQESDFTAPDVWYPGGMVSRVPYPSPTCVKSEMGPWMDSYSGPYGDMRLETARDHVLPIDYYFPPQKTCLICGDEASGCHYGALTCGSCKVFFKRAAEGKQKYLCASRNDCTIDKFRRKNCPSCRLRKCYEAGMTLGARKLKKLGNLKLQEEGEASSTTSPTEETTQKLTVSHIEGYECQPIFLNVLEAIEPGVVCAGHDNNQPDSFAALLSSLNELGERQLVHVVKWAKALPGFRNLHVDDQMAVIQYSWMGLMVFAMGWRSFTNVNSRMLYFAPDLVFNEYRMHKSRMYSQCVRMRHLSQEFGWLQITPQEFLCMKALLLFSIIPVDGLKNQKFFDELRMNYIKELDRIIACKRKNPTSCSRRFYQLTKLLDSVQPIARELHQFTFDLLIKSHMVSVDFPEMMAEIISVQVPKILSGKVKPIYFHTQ
# Test: AR ELISA assay (degradation)
# Assay type: cell-based
# Conditions: VCaP cells, 16 h
# Procedure: The following biological assays were performed to evaluate the protein degradation in various cell types using representative compounds disclosed. The degradation of the following proteins were evaluated: bromodomain-containing protein 4 (BRD4), androgen receptor (AR), c-Myc, c-Jun N-terminal kinases (JNK), and enhancer of zeste homolog 2 (EZH2).
# VCaP cells were chased from ATCC and cultured in Dulbecco's Modified Eagle's Medium (ATCC), supplemented with 10% FBS (ATCC) and Penicillin/Streptomycin (Life Technologies). DMSO control and compound treatments (0.0001 μM to 1 μM) were performed in 96-well plates for 16 h. cells were harvested, and lysed with Cell Lysis Buffer (catalog #9803) (20 mM Tris-HCl, pH 7.5, 150 mM NaCl, 1 mM Na2EDTA, 1 mM EGTA, 1% Triton, 2.5 mM sodium pyrophosphate, 1 mM B-glycerophosphate, 1 mM Na3VO4, 1 μg/mL leupeptin. Lysates were clarified at 16,000 g for 10 minutes, and loaded into PathScan AR ELISA (Cell Signaling Catalog #12850). The PathScan Total Androgen Receptor Sanwich ELISA Kit is a solid phase sandwich enzyme-linked immunosorbent assay (ELISA) that detects endogenous levels of total androgen receptor protein. An Androgen Receptor Rabbit mAb has been coated onto the microwells. After incubation with cell lysates, androgen receptor protein is captured by the coated antibody. Following extensive washing, an Androgen receptor Mouse Detection mAbis added to detect the captured androgen receptor protein. Anti-mouse IgG, HRP-linked Antibody is then used to recognize the bound detection antibody. HRP substrate, TMB, is added to develop color. The magnitude of absorbance for the developed color is proportional to the quantity of total androgen receptor protein.
row,Compound,AR degradation (%) at 1 µM
1,"CC(C)(C)C[C@@H]1NC(C(=O)NCCOCCOCCOCCOCCOCCOc2ccc(C(=O)N[C@H]3C(C)(C)[C@H](Oc4ccc(C#N)c(Cl)c4)C3(C)C)cc2)[C@H](c2cccc(Cl)c2F)[C@@]1(C#N)c1ccc(Cl)cc1F (stereo partly drawn) [Compound A1688, 3-(3-chloro-2-fluorophenyl)-4-(4-chloro-2-fluorophenyl)-4-cyano-5-(2,2-dimethylpropyl)-N-[1-(4-{[(1,3-trans)-3-(3-chloro-4-cyanophenoxy)-2,2,4,4-tetramethylcyclobutyl]-carbamoyl}phenyl)-1,4,7,10,13,16-hexaoxaoctadecan-18-yl]pyrrolidine-2-carboxamide]",0 to 25%
2,"CC(C)(C)C[C@@H]1NC(C(=O)NCCOCCOc2ccc(C(=O)N[C@H]3C(C)(C)[C@H](Oc4ccc(C#N)c(Cl)c4)C3(C)C)cc2)[C@H](c2cccc(Cl)c2F)[C@@]1(C#N)c1ccc(Cl)cc1F (stereo partly drawn) [Compound A1571, 3-(3-chloro-2-fluorophenyl)-4-(4-chloro-2-fluorophenyl)-4-cyano-5-(2,2-dimethylpropyl)-N-{2-[2-(4-{[(1,3-trans)-3-(3-chloro-4-cyanophenoxy)-2,2,4,4-tetramethylcyclobutyl]carbamoyl}phenoxy)ethoxy]ethyl}pyrrolidine-2-carboxamide]",0 to 25%
3,"CCOc1cc(C(C)(C)C)ccc1C1=NC(C)(c2ccc(Cl)cc2)C(C)(c2ccc(Cl)cc2)N1C(=O)N1CCN(CCOCCOc2ccc(N3C(=S)N(c4ccc(C#N)c(C(F)(F)F)c4)C(=O)C3(C)C)cc2)CC1 (centres unmarked) [Compound A680, 4-(3-{4-[2-(2-{4-[2-(4-tert-butyl-2-ethoxyphenyl)-4,5-bis(4-chlorophenyl)-4,5-dimethyl-4,5-dihydro-1H-imidazole-1-carbonyl]piperazin-1-yl}ethoxy)ethoxy]phenyl}-4,4-dimethyl-5-oxo-2-sulfanylideneimidazolidin-1-yl)-2-(trifluoromethyl)benzonitrile]",0 to 25%
4,"CC(C)(C)C[C@@H]1NC(C(=O)NCCOCCOCCOc2ccc(C(=O)N[C@H]3C(C)(C)[C@H](Oc4ccc(C#N)c(Cl)c4)C3(C)C)cc2)[C@H](c2cccc(Cl)c2F)[C@@]1(C#N)c1ccc(Cl)cc1F (stereo partly drawn) [Compound A1621, 3-(3-chloro-2-fluorophenyl)-4-(4-chloro-2-fluorophenyl)-4-cyano-5-(2,2-dimethylpropyl)-N-(2-{2-[2-(4-{[(1,3-trans)-3-(3-chloro-4-cyanophenoxy)-2,2,4,4-tetramethylcyclobutyl]carbamoyl}phenoxy)ethoxy]ethoxy}ethyl)pyrrolidine-2-carboxamide]",0 to 25%
5,"COc1cc(C(=O)NCCCOCCCCCOc2ccc(N3C(=S)N(c4ccc(C#N)c(C(F)(F)F)c4)C(=O)C3(C)C)cc2)ccc1NC(=O)C1NC(CC(C)(C)C)C(C#N)(c2ccc(Cl)cc2F)C1c1cccc(Cl)c1F (centres unmarked) [Compound A2435, 3-(3-chloro-2-fluorophenyl)-4-(4-chloro-2-fluorophenyl)-4-cyano-N-{4-[(3-{[5-(4-{3-[4-cyano-3-(trifluoromethyl)phenyl]-5,5-dimethyl-4-oxo-2-sulfanylideneimidazolidin-1-yl}phenoxy)pentyl]oxy}propyl)carbamoyl]-2-methoxyphenyl}-5-(2,2-dimethylpropyl)pyrrolidine-2-carboxamide]",> 50%
6,"CC(C)(C)C[C@@H]1NC(C(=O)NCCOCCOCCOCCOc2ccc(C(=O)N[C@H]3C(C)(C)[C@H](Oc4ccc(C#N)c(Cl)c4)C3(C)C)cc2)[C@H](c2cccc(Cl)c2F)[C@@]1(C#N)c1ccc(Cl)cc1F (stereo partly drawn) [Compound A1603, 3-(3-chloro-2-fluorophenyl)-4-(4-chloro-2-fluorophenyl)-4-cyano-5-(2,2-dimethylpropyl)-N-[1-(4-{[(1,3-trans)-3-(3-chloro-4-cyanophenoxy)-2,2,4,4-tetramethylcyclobutyl]carbamoyl}phenyl)-1,4,7,10-tetraoxadodecan-12-yl]pyrrolidine-2-carboxamide]",0 to 25%
7,"CC(C)(C)C[C@@H]1NC(C(=O)NCCOCCOCCOCCOCCOc2ccc(C(=O)N[C@H]3C(C)(C)[C@H](Oc4ccc(C#N)c(Cl)c4)C3(C)C)cc2)[C@H](c2cccc(Cl)c2F)[C@@]1(C#N)c1ccc(Cl)cc1F (stereo partly drawn) [Compound A1717, 3-(3-chloro-2-fluorophenyl)-4-(4-chloro-2-fluorophenyl)-4-cyano-5-(2,2-dimethylpropyl)-N-[1-(4-{[(1,3-trans)-3-(3-chloro-4-cyanophenoxy)-2,2,4,4-tetramethylcyclobutyl]carbamoyl}phenyl)-1,4,7,10,13-pentaoxapentadecan-15-yl]pyrrolidine-2-carboxamide]",25 to 50%
8,"CC(C)(C)C[C@@H]1N[C@@H](C(=O)NCCOCCOCCOCCOCCOc2ccc(C(=O)N[C@H]3C(C)(C)[C@H](Oc4ccc(C#N)c(Cl)c4)C3(C)C)cc2)[C@H](c2cccc(Cl)c2F)[C@@]1(C#N)c1ccc(Cl)cc1F [Compound A1720, (2R,3S,4R,5S)-3-(3-chloro-2-fluorophenyl)-4-(4-chloro-2-fluorophenyl)-4-cyano-5-(2,2-dimethylpropyl)-N-[1-(4-{[(1,3-trans)-3-(3-chloro-4-cyanophenoxy)-2,2,4,4-tetramethylcyclobutyl]carbamoyl}phenyl)-1,4,7,10,13-pentaoxapentadecan-15-yl]pyrrolidine-2-carboxamide]",25 to 50%
9,"CC(C)(C)CC1NC(C(=O)NCCCOCCCCCOc2ccc(N3C(=S)N(c4ccc(C#N)c(C(F)(F)F)c4)C(=O)C3(C)C)cc2)C(c2cccc(Cl)c2F)C1(C#N)c1ccc(Cl)cc1F (centres unmarked) [Compound A2434, 3-(3-chloro-2-fluorophenyl)-4-(4-chloro-2-fluorophenyl)-4-cyano-N-(3-{[5-(4-{3-[4-cyano-3-(trifluoromethyl)phenyl]-5,5-dimethyl-4-oxo-2-sulfanylideneimidazolidin-1-yl}phenoxy)pentyl]oxy}propyl)-5-(2,2-dimethylpropyl)pyrrolidine-2-carboxamide]",> 50%

# Tested on: p53
# Test: Western blot of HCT116 cells, p53 level
# Assay type: cell-based, human
# Conditions: Western blot (FIG. 2, FIG. 3)
row,Compound,p53 level increase
1,"COc1cc(C(=O)NCCOCCOCCOCC(=O)N[C@H](C(=O)N2C[C@H](O)C[C@H]2C(=O)NCc2ccc(-c3scnc3C)cc2)C(C)(C)C)ccc1NC(=O)[C@@H]1N[C@@H](CC(C)(C)C)[C@](C#N)(c2ccc(Cl)cc2F)[C@H]1c1cccc(Cl)c1F [Compound A1910, (2R,3S,4R,5S)-3-(3-chloro-2-fluorophenyl)-4-(4-chloro-2-fluorophenyl)-4-cyano-5-(2,2-dimethylpropyl)-N-{4-[(2-{2-[2-({[(2S)-1-[(2S,4R)-4-hydroxy-2-({[4-(4-methyl-1,3-thiazol-5-yl)phenyl]methyl}-carbamoyl)pyrrolidin-1-yl]-3,3-dimethyl-1-oxobutan-2-yl]carbamoyl}methoxy)-ethoxy]ethoxy}ethyl)carbamoyl]-2-methoxyphenyl}pyrrolidine-2-carboxamide]",dose dependent p53 level increase
2,"COc1cc(C(=O)NCCOCCOCCOCCOCC(=O)N[C@H](C(=O)N2C[C@H](O)C[C@H]2C(=O)NCc2ccc(-c3scnc3C)cc2)C(C)(C)C)ccc1NC(=O)[C@@H]1N[C@@H](CC(C)(C)C)[C@](C#N)(c2ccc(Cl)cc2F)[C@H]1c1cccc(Cl)c1F (single isomer, unassigned) [Compound A1896]",dose dependent p53 level increase
